Where a name gives a salt, the structure may show the parent alone.
Test: in vitro
Settings: rat, gh3-tre-luc cells, AC50 (uM) modified / 1000

Row | SMILES | CC50 at 24 h [µM]
1 | CC(Cc1ccc(O)cc1)NCC(O)c1cc(O)cc(O)c1 (stereo not shown) [Fenoterol hydrobromide] | > 50
2 | O=C(CN1CCN(Cc2ccc3c(c2)OCO3)CC1)N1c2ccccc2Sc2ccccc21 [Fenoverine] | 23.4
3 | CCOC(=O)[C@@H](C)Oc1ccc(Oc2nc3ccc(Cl)cc3o2)cc1 [Fenoxaprop-P-ethyl] | > 90
4 | CCOC(=O)C(C)Oc1ccc(Oc2nc3ccc(Cl)cc3o2)cc1 (stereo not shown) [Fenoxaprop-ethyl] | > 90
5 | CCOC(=O)NCCOc1ccc(Oc2ccccc2)cc1 [Fenoxycarb] | > 90
6 | C[N+]1(CCC(C(N)=O)(c2ccccc2)c2ccccc2)CCCCC1 [Fenpiverinium bromide] | > 50
7 | Cc1nn(C)c(Oc2ccccc2)c1C=NOCc1ccc(C(=O)OC(C)(C)C)cc1 [Fenpyroximate (Z,E)] | 59.7
8 | O=S(=O)(Oc1ccc(Cl)cc1)c1ccccc1 [Fenson] | > 90
9 | O=C1NCC2(CCN(CCc3ccccc3)CC2)O1 [Fenspiride hydrochloride] | > 50
10 | COP(=S)(OC)Oc1ccc(SC)c(C)c1 [Fenthion] | > 90
11 | O=C(O)Cc1sc(-c2ccccc2)nc1-c1ccc(Cl)cc1 [Fentiazac] | > 50
12 | CN(C)C(=O)Nc1ccccc1 [Fenuron] | > 90
13 | CC(C)C(C(=O)OC(C#N)c1cccc(Oc2ccccc2)c1)c1ccc(Cl)cc1 (stereo not shown) [Fenvalerate] | > 90
14 | CC(C)=CCC1C(=O)N(c2ccccc2)N(c2ccccc2)C1=O [Feprazone] | 48.7
15 | Cc1ccc(/C=N/n2c(-c3ccccc3)csc2=S)cc1 [Fezatione] | > 50
16 | NC(=O)[C@@H]1C[C@]2(NC(=O)NC2=O)c2cc(F)ccc2O1 [Fidarestat] | > 50
17 | COc1cccc2c1[C@@H]1CN(CCCCn3c(=O)[nH]c4c(sc5ncc(-c6ccccc6)nc54)c3=O)C[C@@H]1CO2 [Fiduxosin hydrochloride] | 13.1
18 | O=C(COc1ccc(Cl)cc1)N1CCN(Cc2ccc3c(c2)OCO3)CC1 [Fipexide hydrochloride] | 66.7
19 | COc1cc(O)cc(O)c1 [Flamenol] | > 50
20 | CC(C)OC(=O)C(C)N(C(=O)c1ccccc1)c1ccc(F)c(Cl)c1 (stereo not shown) [Flamprop-isopropyl] | 50

Row | SMILES | CC50 at 24 h [µM]
21 | Cc1cc2nc3c(=O)[nH]c(=O)nc-3n(C[C@H](O)[C@H](O)[C@H](O)COP(=O)(O)OP(=O)(O)OC[C@H]3O[C@@H](n4cnc5c(N)ncnc54)[C@H](O)[C@@H]3O)c2cc1C [Flavin adenine dinucleotide disodium] | > 50
22 | O=c1cc(-c2ccccc2)oc2ccccc12 [Flavone] | > 90
23 | CN1CC[C@H](c2c(O)cc(O)c3c(=O)cc(-c4ccccc4Cl)oc23)[C@H](O)C1 [Flavopiridol hydrochloride] | 0.302
24 | Cc1c(-c2ccccc2)oc2c(C(=O)OCCN3CCCCC3)cccc2c1=O [Flavoxate hydrochloride] | > 20
25 | CN1CCC(O)(c2ccc(F)cc2)C(C(=O)c2ccc(F)cc2)C1 (stereo not shown) [Flazalone] | 19.6
26 | O=C(NCC1CCCCN1)c1cc(OCC(F)(F)F)ccc1OCC(F)(F)F (stereo not shown) [Flecainide acetate] | 42.2
27 | CN1CCN(c2c(F)cc3c(=O)c(C(=O)O)cn(CCF)c3c2F)CC1 [Fleroxacin] | > 50
28 | CO[C@@]1(NC(=O)CSC(F)F)C(=O)N2C(C(=O)O)=C(CSc3nnnn3CCO)CO[C@@H]21 [Flomoxef] | > 50
29 | CCC(=O)c1c(O)cc(O)cc1O [Flopropione] | > 50
30 | CS(=O)(=O)c1ccc([C@@H](O)[C@@H](CF)NC(=O)C(Cl)Cl)cc1 [Florfenicol] | > 20
31 | Cn1cc([S+](C)[O-])c(=O)c2ccc(F)cc21 (stereo not shown) [Flosequinan] | > 50
32 | Cc1onc(-c2c(F)cccc2Cl)c1C(=O)N[C@@H]1C(=O)N2[C@@H]1SC(C)(C)[C@@H]2C(=O)O [Floxacillin sodium salt] | > 50
33 | O=c1[nH]c(=O)n([C@H]2C[C@H](O)[C@@H](CO)O2)cc1F [Floxuridine] | > 50
34 | CCN(CC)CCC(=O)N1c2ccccc2Sc2ccc(C(F)(F)F)cc21 [Fluacizine] | 20.5
35 | COc1ccccc1N1CCN(CCCC(=O)c2ccc(F)cc2)CC1 [Fluanisone] | > 50
36 | CCCCOC(=O)[C@@H](C)Oc1ccc(Oc2ccc(C(F)(F)F)cn2)cc1 [Fluazifop-P-butyl] | > 90
37 | CCCCOC(=O)C(C)Oc1ccc(Oc2ccc(C(F)(F)F)cn2)cc1 (stereo not shown) [Fluazifop-butyl] | > 90
38 | O=[N+]([O-])c1cc(C(F)(F)F)c(Cl)c([N+](=O)[O-])c1Nc1ncc(C(F)(F)F)cc1Cl [Fluazinam] | 4.25
39 | O=C(NC(=O)c1c(F)cccc1F)Nc1ccc(Cl)c(Oc2ncc(C(F)(F)F)cc2Cl)c1 [Fluazuron] | > 50
40 | Cc1cc(C(F)(C(F)(F)F)C(F)(F)F)ccc1NC(=O)c1cccc(I)c1C(=O)NC(C)(C)CS(C)(=O)=O [Flubendiamide] | > 70

Source: publication PMC6792352, “Limited Chemical Structural Diversity Found to Modulate Thyroid Hormone Receptor in the Tox21 Chemical Library” (Environmental Health Perspectives, 2019)
